Reference: ChEMBL document CHEMBL3886247, “Aurora and FLT3 kinases modulators” (2015)

What was measured:
[1] = biological target: Aurora kinase B (Homo sapiens, UniProt Q96GD4); assay: Inhibition Assay: Kinase assays were performed at Reaction Biology Corp., Malvern, Pa., USA, using the following general procedure:1) Prepare indicated substrate in freshly prepared Base Reaction Buffer (20 mM Hepes pH 7.5, 10 mM MgCl2, 1 mM EGTA, 0.02% Brij35, 0.02 mg/ml BSA, 0.1 mM Na3VO4, 2 mM DTT, 1% DMSO).2) Deliver cofactors (1.5 mM CaCl2, 16 ug/mL Calmodulin, 2 mM MnCl2) to the substrate solution above.3) Deliver indicated kinase into the substrate solution and gently mix4) Deliver varying concentrations of test compound in DMSO into the kinase reaction mixture.5) Deliver 33P-ATP (specific activity 0.01 uCi/uL final) into the reaction mixture to initiate the reaction.6) Incubate kinase reaction for 120 min at room temperature.7) Reactions are spotted onto P81 ion exchange filter paper (Whatman #3698-915)8) Unbound phosphate is removed by washing filters extensively in 0.75% phosphoric acid.9) 33P signal was determined using Typhoon phosphorimagers (GE Healthcare).
[2] = biological target: T1, Receptor-type tyrosine-protein kinase FLT3 (Homo sapiens, UniProt P36888); assay: Inhibition Assay: Kinase assays were performed at Reaction Biology Corp., Malvern, Pa., USA, using the following general procedure:1) Prepare indicated substrate in freshly prepared Base Reaction Buffer (20 mM Hepes pH 7.5, 10 mM MgCl2, 1 mM EGTA, 0.02% Brij35, 0.02 mg/ml BSA, 0.1 mM Na3VO4, 2 mM DTT, 1% DMSO).2) Deliver cofactors (1.5 mM CaCl2, 16 ug/mL Calmodulin, 2 mM MnCl2) to the substrate …
T1 sequence (P36888 whole entry): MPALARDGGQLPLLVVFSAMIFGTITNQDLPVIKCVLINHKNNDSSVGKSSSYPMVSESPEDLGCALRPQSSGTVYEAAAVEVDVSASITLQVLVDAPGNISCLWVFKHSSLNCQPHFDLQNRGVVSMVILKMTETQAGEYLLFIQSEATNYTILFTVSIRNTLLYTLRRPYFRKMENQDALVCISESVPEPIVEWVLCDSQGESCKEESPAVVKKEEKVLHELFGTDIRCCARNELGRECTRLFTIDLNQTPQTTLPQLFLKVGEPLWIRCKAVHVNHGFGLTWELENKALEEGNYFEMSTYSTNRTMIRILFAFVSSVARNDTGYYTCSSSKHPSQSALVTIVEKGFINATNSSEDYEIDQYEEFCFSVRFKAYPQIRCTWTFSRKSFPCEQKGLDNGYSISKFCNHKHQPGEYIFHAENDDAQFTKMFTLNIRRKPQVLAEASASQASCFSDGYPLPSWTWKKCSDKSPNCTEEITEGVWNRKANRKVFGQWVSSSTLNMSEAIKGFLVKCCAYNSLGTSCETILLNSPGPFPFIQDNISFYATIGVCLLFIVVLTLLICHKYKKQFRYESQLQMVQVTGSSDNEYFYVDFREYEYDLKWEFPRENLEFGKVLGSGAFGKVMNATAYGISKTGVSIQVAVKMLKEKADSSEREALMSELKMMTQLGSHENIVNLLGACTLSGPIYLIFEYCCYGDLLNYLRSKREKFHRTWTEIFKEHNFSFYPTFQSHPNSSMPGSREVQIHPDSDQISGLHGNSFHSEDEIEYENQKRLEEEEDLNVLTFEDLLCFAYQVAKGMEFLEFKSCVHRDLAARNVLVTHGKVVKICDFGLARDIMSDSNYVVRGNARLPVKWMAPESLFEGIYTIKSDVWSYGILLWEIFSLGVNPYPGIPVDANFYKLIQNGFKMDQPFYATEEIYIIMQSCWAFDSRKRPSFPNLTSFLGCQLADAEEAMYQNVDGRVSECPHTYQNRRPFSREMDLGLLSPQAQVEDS

Sequence of Aurora kinase B (Q96GD4 whole entry): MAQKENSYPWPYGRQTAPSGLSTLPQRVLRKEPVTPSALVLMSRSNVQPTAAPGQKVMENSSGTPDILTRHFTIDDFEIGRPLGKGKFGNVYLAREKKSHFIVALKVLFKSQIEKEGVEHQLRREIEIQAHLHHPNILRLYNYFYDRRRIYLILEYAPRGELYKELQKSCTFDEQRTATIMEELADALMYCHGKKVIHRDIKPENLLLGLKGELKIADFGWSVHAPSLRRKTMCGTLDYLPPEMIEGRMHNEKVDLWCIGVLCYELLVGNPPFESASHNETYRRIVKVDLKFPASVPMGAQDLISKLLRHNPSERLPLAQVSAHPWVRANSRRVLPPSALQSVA

IC50 [1]: 12 nM | IC50 [2]: 0.67 nM
SMILES: CCc1ccc(-c2nc(C(N)=O)c(-c3ccc(N4CCNC(C)(C)C4)cc3)o2)c2cc[nH]c12
